US8258140B2 (Astrazeneca AB, priority 2009, dated 2012)

Target: T1, isolated rat AR-LBD (Rattus norvegicus, UniProt P15207)
T1 construct: purchased Invitrogen PV4293
T1 sequence (P15207 651-882 limits assumed): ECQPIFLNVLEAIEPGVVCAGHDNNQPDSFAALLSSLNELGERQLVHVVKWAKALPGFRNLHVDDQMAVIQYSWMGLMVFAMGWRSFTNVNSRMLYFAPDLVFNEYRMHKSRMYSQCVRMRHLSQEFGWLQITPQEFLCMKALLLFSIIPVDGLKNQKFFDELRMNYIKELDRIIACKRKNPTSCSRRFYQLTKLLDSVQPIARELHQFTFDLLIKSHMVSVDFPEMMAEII
Test: Androgen Receptor Ligand Binding Domain Competitive Binding Assay (fluorescence polarisation, PolarScreen)
Details: FP, 12 nM AR-LBD, 2 nM fluormone, 4-6 hours at room temperature, 50% reduction in tracer binding; read-out: Androgen Receptor Ligand Binding Domain Competitive Binding Assay (b) IC50/μM
Protocol: The ability of compounds to bind to isolated Androgen Receptor Ligand binding domain (AR-LBD) was assessed in competition assays using a Fluorescence Polarisation (FP) detection end-point.
For the FP test, an assay test kit was purchased from Invitrogen and used to measure compound binding to the isolated rat AR-LBD which shares 100% sequence identity to the human AR-LBD. The Invitrogen PolarScreen™ Androgen Receptor Competitor Assay Red (Product Code No. PV4293), is a fluorescence polarisation (FP)—based competition assay which measures if test compound can displace a fluorescently-labelled tracer compound. If the test compound binds to the AR-LBD it will prevent the formation of the receptor/tracer complex, which will result in a low polarisation value.
The assay was performed as follows with all reagent additions carried out using the Thermo Scientific Matrix PlateMate: • 1. Acoustic dispense 120 nl of the test compound into a black low volume 384 well assay plates. • 2. Volumes of reagents are added to give the following final concentrations of assay components:—0.5 mM DTT, 2 nM fluormone, 12 nM AR-LBD in the Invitrogen Assay Buffer • 3. Dispense 15 μl of the assay mix into each well of the assay plate • 4. Cover the assay plate to protect the reagents from light and evaporation, and incubate at room temperature for 4-6 hours. • 5. Excite at […] and measure the fluorescent emission signal of each well at 590 nm in FP mode using the BMG PheraSTAR or other suitable plate reader.
Compounds were dosed directly from a compound source microplate containing serially diluted compound (4 wells containing 10 mM, 0.1 mM, 1 μM and 10 nM final compound respectively) to an assay microplate using an Labcyte Echo 550. The Echo 550 is a liquid handler that uses acoustic technology to perform direct microplate-to-microplate transfers of DMSO compound solutions and the system can be programmed to transfer multiple small nL volumes of compound from the different source plate wells to give the desired serial dilution of compound in the assay which is then back-filled to normalise the DMSO concentration across the dilution range. In total 120 nL of compound plus DMSO was added to each well and compounds tested in a 12-point concentration response format over a final compound concentration range of 100, 30, 10, 3, 1, 0.3, 0.1, 0.03, 0.01, 0.003, 0.001, 0.0001 μM, respectively.
FP dose response data obtained with each compound was exported into a suitable software package (such as Origin) to perform curve fitting analysis. Competitive AR binding may be expressed as an IC50 value. This is determined by calculation of the concentration of compound that is required to give a 50% reduction in tracer compound binding to AR-LBD.

| Structure (SMILES) | IC50 |
| --- | --- |
| CC(=O)N1CCN(CCCOc2ccc(C3CCN(C4=Nn5c(nnc5C(F)(F)F)CC4)CC3)cc2)CC1 [Example 4.1, 6-[4-[4-[3-(4-acetylpiperazin-1-yl)propoxy]phenyl]piperidin-1-yl]-3-(trifluoromethyl)-7,8-dihydro[1,2,4]triazolo[4,3-b]pyridazine] | 23.8 µM |
| CC(=O)N1CCN(CCOc2ccc(C3CCN(C4=Nn5c(nnc5C(F)(F)F)CC4)CC3)cc2)CC1 [Example 5.1, 6-(4-{4-[2-(4-acetylpiperazin-1-yl)ethoxy]phenyl}piperidin-1-yl)-3-(trifluoromethyl)-7,8-dihydro[1,2,4]triazolo[4,3-b]pyridazine] | 22.9 µM |
| CN1CCN(CCOc2ccc(C3CCN(C4=Nn5c(nnc5C(F)(F)F)CC4)CC3)cc2)CC1=O [Example 37, 1-methyl-4-[2-(4-{1-[3-(trifluoromethyl)-7,8-dihydro[1,2,4]triazolo[4,3-b]pyridazin-6-yl]piperidin-4-yl}phenoxy)ethyl]piperazin-2-one] | 61.9 µM |
| CC(=O)N1CCN(CCOc2ccc(C3CCN(C4=Nn5c(nnc5C(F)(F)F)CC4)CC3)cc2)C[C@H]1C [Example 51, 6-[4-(4-{2-[(3R)-4-acetyl-3-methylpiperazin-1-yl]ethoxy}phenyl)piperidin-1-yl]-3-(trifluoromethyl)-7,8-dihydro[1,2,4]triazolo[4,3-b]pyridazine] | 30.3 µM |
